In patent US20030216378A1, “Azepino[4,5-b]pyrano[3,2-e]indoles” (priority 2000, published 2003):

Compound	melting point
O=C(O)Cn1c2c(c3c4c(ccc31)OCC=C4)CCN(Cc1ccccc1)CC2 [Example 8]	185 to 187 °C
Cl.O=C(Cn1c2c(c3c4c(ccc31)OCCC4)CCNCC2)Nc1ccccc1	> 250 °C (dec.)
Cl.c1cc2[nH]c3c(c2c2c1OCCC2)CCNCC3	> 283 °C (dec.)
O=C(Cn1c2c(c3c4c(ccc31)OCC=C4)CCN(Cc1ccccc1)CC2)Nc1ccccc1 [Example 9, 2-(10-benzyl-3,8,9,10,11,12-hexahydro-7H-azepino[4.5-b]pyrano[3,2-e]indol-7-yl)-N-phenylacetamide]	134 to 136 °C

Now from value to compound:

melting point	Compound
112 to 114 °C	Cn1c2c(c3c4c(ccc31)OCC=C4)CCN(Cc1ccccc1)CC2 [Example 1, 10-Benzyl-7-methyl-7,8,9,10,11,12-hexahydro-3H-azepino[4,5-]pyrano[3,2-e]indole]
157 to 160 °C	C1=Cc2c(ccc3[nH]c4c(c23)CCN(Cc2ccccc2)CC4)OC1
